Laboratory results reported in publication PMC7031696 (Cell chemical biology, 2019).
Where two headings read alike, the source gives them in different places.

Legend:
[1] = system: Plasmodium falciparum 3D7-A10 parasites; assay: Stage specificity assay (8-h exposure of synchronized stages, IC50^8h); assay type: cell-based; details: for IC50: Plasmodium falciparum
[2] = system: asynchronous 3D7-A10 parasite cultures; assay: Standard 72-h exposure asexual blood stage susceptibility assay (IC50^72h); assay type: cell-based, Plasmodium falciparum; details: Plasmodium falciparum, 3D7, 72 h, read-out: Overall (72hr assay) Mean IC50 (IC50^72h)
[3] = system: 3D7-MR4 trophozoite parasite-infected RBCs; assay: Metabolomic profiling (hydrophilic metabolite changes, UHPLC-MS); assay type: cell-based, Plasmodium falciparum

Cl.c1ccc2c(NCCCCCCNc3c4c(nc5ccccc35)CCCC4)c3c(nc2c1)CCCC3 [MMV019555]
Ratio lowest IC50 8hr/IC50 72hr ([1]; 3D7-A10): 2.4 | IC50 ([1]; 3D7, read-out: Early rings Mean IC50 (IC50^8h)): 0.755 µM | IC50 ([1]; 3D7, read-out: Early trophozoites Mean IC50 (IC50^8h)): 0.0814 µM | IC50 ([1]; 3D7, read-out: Late rings Mean IC50 (IC50^8h)): 0.788 µM | IC50 ([1]; 3D7, read-out: Late trophozoites Mean IC50 (IC50^8h)): 0.11 µM | IC50 ([1]; 3D7, read-out: Schizonts Mean IC50 (IC50^8h)): 0.349 µM | Stage of peak activity (Figure 6) ([1]; period when the parasite was most susceptible (lowest IC50^8h)): trophozoites | Peak Activity (Table S1) ([1]; stage(s) with the lowest IC50^8h): Trophs | IC50 [2]: 0.0333 µM | peptide levels (hemoglobin catabolism signature) ([3]; 10 × IC50^72h, 2.5 hr, trophozoites): decreased peptide levels | Log2(fold changes) 3-phosphoglycerate ([3]; metabolite 3-phosphoglycerate, log2 fold change): -0.7704 | Log2(fold changes) 4-Pyridoxic acid ([3]; metabolite 4-Pyridoxic acid, log2 fold change): -0.0064 | Log2(fold changes) 4-aminobutyrate ([3]; metabolite 4-aminobutyrate, log2 fold change): -0.0746 | Log2(fold changes) 4-phosphopantetheine ([3]; metabolite 4-phosphopantetheine, log2 fold change): 0.0000 | Log2(fold changes) 4-phosphopantothenate ([3]; metabolite 4-phosphopantothenate, log2 fold change): -0.0563 | Log2(fold changes) 5-aminopentanoic acid ([3]; metabolite 5-aminopentanoic acid, log2 fold change): 0.0000 | Log2(fold changes) 5-methyl-THF ([3]; metabolite 5-methyl-THF, log2 fold change): 0.0000 | Log2(fold changes) 5-phosphoribosyl-1-pyrophosphate ([3]; metabolite 5-phosphoribosyl-1-pyrophosphate, log2 fold change): 0.0000 | Log2(fold changes) 6-phospho-D-gluconate ([3]; metabolite 6-phospho-D-gluconate, log2 fold change): -0.1925 | Log2(fold change) HVDD ([3]; metabolite HVDD): -3.3896 | Log2(fold change) Hydroxyisocaproic acid ([3]; metabolite Hydroxyisocaproic acid): 0.0000 | Log2(fold change) IDP ([3]; metabolite IDP): 0.0000 | Log2(fold change) IMP ([3]; metabolite IMP): 0.2158 | Log2(fold change) Inositol ([3]; metabolite Inositol): 0.0000 | Log2(fold change) Isopentyl-PP ([3]; metabolite Isopentyl-PP): 0.0000 | Log2(fold change) L-arginino-succinate ([3]; metabolite L-arginino-succinate): 2.1877 | Log2(fold change) LD ([3]; metabolite LD): -0.1309 | Log2(fold change) Myristoyl/tetradecanoyl-CoA ([3]; metabolite Myristoyl/tetradecanoyl-CoA): 0.0000 | Log2(fold change) N-Acetyl-L-alanine ([3]; metabolite N-Acetyl-L-alanine): -0.6973 | Log2(fold change) N-acetyl-L-ornithine ([3]; metabolite N-acetyl-L-ornithine): -2.1230 | Log2(fold change) N-acetyl-glucosamine-1/6-phosphate ([3]; metabolite N-acetyl-glucosamine-1/6-phosphate): -0.2838 | Log2(fold change) N-acetyl-glutamate ([3]; metabolite N-acetyl-glutamate): 0.3598 | Log2(fold change) N-acetyl-glutamine ([3]; metabolite N-acetyl-glutamine): -3.0977 | Log2(fold change) N-carbamoyl-L-aspartate ([3]; metabolite N-carbamoyl-L-aspartate): -1.7500 | Log2(fold change) NAD+ ([3]; metabolite NAD+): -0.0354 | Log2(fold change) NADH ([3]; metabolite NADH): 0.0000 | Log2(fold change) NADP+ ([3]; metabolite NADP+): 0.1571 | Log2(fold change) NADPH ([3]; metabolite NADPH): 0.0000 | Log2(fold change) O-acetyl-L-serine ([3]; metabolite O-acetyl-L-serine): 0.0000 | Log2(fold change) Octoluse 8/1P ([3]; metabolite Octoluse 8/1P): 0.0000 | Log2(fold change) Octoluse Bisphosphate ([3]; metabolite Octoluse Bisphosphate): 0.2948 | Log2(fold change) PD ([3]; metabolite PD): -3.7912 | Log2(fold change) PE ([3]; metabolite PE): -2.1499 | Log2(fold change) PEE ([3]; metabolite PEE): -2.7511 | Log2(fold change) PEEK ([3]; metabolite PEEK): -0.8070 | Log2(fold change) PVNF ([3]; metabolite PVNF): -5.1804 | Log2(fold change) Pyroglutamic acid ([3]; metabolite Pyroglutamic acid): 0.0000 | Log2(fold change) Pyrophosphate ([3]; metabolite Pyrophosphate): 0.0000 | Log2(fold change) Ribose-5-phosphate ([3]; metabolite Ribose-5-phosphate): 0.0000 | Log2(fold change) S-adenosyl-L-homocysteine ([3]; metabolite S-adenosyl-L-homocysteine): -0.6013 | Log2(fold change) S-adenosyl-L-methioninamine ([3]; metabolite S-adenosyl-L-methioninamine): 0.0000 | Log2(fold change) S-adenosyl-L-methionine ([3]; metabolite S-adenosyl-L-methionine): 0.0000 | Log2(fold change) S-methyl-5'-thioadenosine ([3]; metabolite S-methyl-5'-thioadenosine): 0.0000 | Log2(fold change) SD ([3]; metabolite SD): -1.1672 | Log2(fold change) SDL ([3]; metabolite SDL): -3.6117 | Log2(fold change) SID ([3]; metabolite SID): -6.9124 | Log2(fold change) Sedoheptulose bisphosphate ([3]; metabolite Sedoheptulose bisphosphate): 0.7315 | Log2(fold change) Thiamine pyrophosphate ([3]; metabolite Thiamine pyrophosphate): 0.0000 | Log2(fold changes) UDP-D-glucose ([3]; metabolite UDP-D-glucose, log2 fold change): 0.2602 | Log2(fold changes) UDP-D-glucuronate ([3]; metabolite UDP-D-glucuronate, log2 fold change): 0.1434 | Log2(fold changes) UDP-N-acetyl-glucosamine ([3]; metabolite UDP-N-acetyl-glucosamine, log2 fold change): 0.1146 | Log2(fold changes) UDP ([3]; metabolite UDP, log2 fold change): 0.8739 | Log2(fold changes) UMP ([3]; metabolite UMP, log2 fold change): -0.0547 | Log2(fold changes) UTP ([3]; metabolite UTP, log2 fold change): -0.1611 | Log2(fold change) hydroxyphenylpyruvate ([3]; metabolite hydroxyphenylpyruvate): 0.0000 | Log2(fold change) hydroxyproline/Aminolevulinate ([3]; metabolite hydroxyproline/Aminolevulinate): 0.0631 | Log2(fold change) hypoxanthine ([3]; metabolite hypoxanthine): 0.0000 | Log2(fold change) indole ([3]; metabolite indole): 0.0000 | Log2(fold change) inosine ([3]; metabolite inosine): -0.4951 | Log2(fold change) isoleucine ([3]; metabolite isoleucine): 0.1119 | Log2(fold change) lactate ([3]; metabolite lactate): 0.0000 | Log2(fold change) leucine ([3]; metabolite leucine): -0.0578 | Log2(fold change) lysine ([3]; metabolite lysine): 0.0000 | Log2(fold change) malate ([3]; metabolite malate): -0.8281 | Log2(fold change) maleic acid ([3]; metabolite maleic acid): -0.8184 | Log2(fold change) methionine ([3]; metabolite methionine): 0.4693 | Log2(fold change) myo-inositol ([3]; metabolite myo-inositol): 0.0000 | Log2(fold change) nicotinamide mononucleotide ([3]; metabolite nicotinamide mononucleotide): 0.0000 | Log2(fold change) nicotinate ([3]; metabolite nicotinate): -0.1129 | Log2(fold change) ornithine ([3]; metabolite ornithine): 0.0000 | Log2(fold change) orotate ([3]; metabolite orotate): -0.7791 | Log2(fold change) orotidine-5'-phosphate ([3]; metabolite orotidine-5'-phosphate): -1.4071 | Log2(fold change) oxaloacetate ([3]; metabolite oxaloacetate): 0.0000 | Log2(fold change) p-aminobenzoate ([3]; metabolite p-aminobenzoate): 0.0000 | Log2(fold change) p-hydroxybenzoate ([3]; metabolite p-hydroxybenzoate): 0.0000 | Log2(fold change) pantothenate ([3]; metabolite pantothenate): 0.0969 | Log2(fold change) phenylalanine ([3]; metabolite phenylalanine): -0.1076 | Log2(fold change) phenylpyruvate ([3]; metabolite phenylpyruvate): 0.0000 | Log2(fold change) phosphoenolpyruvate ([3]; metabolite phosphoenolpyruvate): -0.6196 | Log2(fold change) prephenate ([3]; metabolite prephenate): 0.0000 | Log2(fold change) proline ([3]; metabolite proline): -0.3102 | Log2(fold change) pyridoxine ([3]; metabolite pyridoxine): 0.0000 | Log2(fold change) pyruvate ([3]; metabolite pyruvate): -0.3424 | Log2(fold change) riboflavin ([3]; metabolite riboflavin): 0.1087 | Log2(fold change) ribose ([3]; metabolite ribose): 0.0000 | Log2(fold change) ribose-phosphate ([3]; metabolite ribose-phosphate): -0.8253 | Log2(fold change) ribulose-5-phosphate ([3]; metabolite ribulose-5-phosphate): -0.7229 | Log2(fold change) serine ([3]; metabolite serine): 0.0219 | Log2(fold change) sn-glycerol-3-phosphate ([3]; metabolite sn-glycerol-3-phosphate): -0.8632 | Log2(fold change) succinate/Methylmalonic acid ([3]; metabolite succinate/Methylmalonic acid): 0.2169 | Log2(fold change) succinyl-CoA/methylmalonyl-CoA ([3]; metabolite succinyl-CoA/methylmalonyl-CoA): 0.0000 | Log2(fold change) taurine ([3]; metabolite taurine): 0.0000 | Log2(fold change) thiamine ([3]; metabolite thiamine): -0.8248 | Log2(fold change) threonine/homoserine ([3]; metabolite threonine/homoserine): -0.3688 | Log2(fold change) thymidine ([3]; metabolite thymidine): 0.0000 | Log2(fold changes) thymine ([3]; metabolite thymine, log2 fold change): 0.0000 | Log2(fold changes) trehalose-6-Phosphate ([3]; metabolite trehalose-6-Phosphate, log2 fold change): 0.0000 | Log2(fold changes) tryptophan ([3]; metabolite tryptophan, log2 fold change): -0.0448 | Log2(fold changes) tyrosine ([3]; metabolite tyrosine, log2 fold change): 0.2358 | Log2(fold changes) uridine ([3]; metabolite uridine, log2 fold change): 0.0000
